Laboratory results: publication PMC6639057 (Investigational new drugs, 2018)
Values joined by “and” are separate entries in the source; they are usually repeats but may differ in a detail not shown here. Equal entries are not always repeated. “Also recorded” adds a separate entry of the source.

Key:
[1] = system: taxane- and platinum-resistant ovarian cancer; assay: Tumor response, dose-expansion ovarian cancer cohort; assay type: in vivo, human
p-histone H3 = conditions: not measured in this study; no reference given; cited from earlier work
[2] = system: xenografts of diverse tumor types that were resistant to either docetaxel or paclitaxel; conditions: mouse models; cited from earlier work
[3] = system: TNBC cell lines and xenografts; conditions: in combination with ixabepilone; cited from earlier work
[4] = system: taxane-resistant triple-negative breast cancer; assay: Tumor response, dose-expansion TNBC cohort; assay type: in vivo, human
[5] = Central read, RECIST 1.1, expansion 40 mg + G-CSF, OC (n = 29)
[6] = GCIG criteria (RECIST 1.1 and CA 125), expansion 40 mg + G-CSF, OC (n = 29)
[7] = Local read, RECIST 1.0, expansion 40 mg + G-CSF, OC (n = 29)
[8] = Central read, RECIST 1.1, expansion 40 mg + G-CSF, TNBC (n = 14)
[9] = Local read, RECIST 1.0, expansion 40 mg + G-CSF, TNBC (n = 14)

SMILES: Cc1csc(-c2nnc(Nc3ccc(Oc4ncccc4-c4ccnc(N)n4)cc3)c3ccccc23)c1 [AMG 900]
- Progression-free survival, median (80% CI) ([1]; Central read, RECIST 1.1, Kaplan-Meier, expansion 40 mg + G-CSF, OC (n = 29)): 31.7 (23.7–47.6) weeks
- Best overall response: Complete response [1, 5]: 0 Patients (%)
- Best overall response: Not evaluable (postbaseline scan not readable) [1, 5]: 2 (7) Patients (%)
- Best overall response: Partial response [1, 5]: 3 (10) Patients (%)
- Best overall response: Progressive disease [1, 5]: 3 (10) Patients (%)
- Best overall response: Stable disease [1, 5]: 21 (72) Patients (%)
- Best overall response: Complete response [1, 6]: 0 Patients (%)
- Best overall response: Not evaluable (postbaseline scan not readable) [1, 6]: 3 (10) Patients (%)
- Best overall response: Partial response [1, 6]: 7 (24) Patients (%)
- Best overall response: Progressive disease [1, 6]: 3 (10) Patients (%)
- Best overall response: Stable disease [1, 6]: 16 (55) Patients (%)
- Partial response ([1]; GCIG criteria (RECIST 1.1 and CA 125), expansion ovarian cancer (7 of 29)): 24.1%
- Objective response rate (ORR) ([1]; GCIG criteria (central read), expansion ovarian cancer, 95% CI 10.3%–43.5%): 24.1%
- Progressive disease ([1]; GCIG criteria, expansion ovarian cancer (3 of 29)): 10.3%
- Stable disease ([1]; GCIG criteria, expansion ovarian cancer (16 of 29)): 55.2%
- Median (80% CI) PFS ([1]; Kaplan-Meier, ovarian cancer patients from dose-escalation (n = 4) and dose-expansion (n = 29)): 34.1 (31.1–not estimable) weeks
- Best overall response: Complete response [1, 7]: 0 Patients (%)
- Best overall response: Not evaluable (postbaseline scan not readable) [1, 7]: 2 (7) Patients (%)
- Best overall response: Partial response [1, 7]: 3 (10) Patients (%)
- Best overall response: Progressive disease [1, 7]: 4 (14) Patients (%)
- Best overall response: Stable disease [1, 7]: 20 (69) Patients (%)
- Progressive disease ([1]; RECIST 1.1, expansion ovarian cancer (3 of 29)): 10.3%
- Stable disease as best response ([1]; RECIST 1.1, expansion ovarian cancer (21 of 29)): 72.4%
- Median duration of response ([1]; RECIST 1.1, expansion ovarian cancer, 95% CI: 16.1–34.1): 24.1 weeks
- Objective response rate (ORR) ([1]; RECIST 1.1 central read, expansion ovarian cancer, 95% CI 2.0%–28.0%): 10.3%
- Partial response ([1]; RECIST 1.1 central, expansion ovarian cancer (3 of 29)): 10.3%
- Duration of partial response, individual patients ([1]; by GCIG criteria, same three ovarian cancer patients): 16.1 weeks and 65.6 weeks and 74.9 weeks
- Duration of partial response, individual patients ([1]; by RECIST 1.1, three ovarian cancer patients): 34.1 weeks and 24.1 weeks and 16.1 weeks
- 50% inhibitory concentration for the in vivo inhibition of p-histone H3 (p-histone H3): 273 ng/mL
- Growth of xenografts [2]: inhibited growth
- Growth of TNBC cell lines and xenografts [3]: inhibited growth
- Tumor response, one patient with TNBC ([4]; 40 mg + G-CSF, RECIST 1.0 (local read)): partial response per RECIST 1.0 (local read) that was not confirmed per RECIST 1.1 (central read)
- Progression-free survival, median (80% CI) ([4]; Central read, RECIST 1.1, Kaplan-Meier, expansion 40 mg + G-CSF, TNBC (n = 14)): 7.6 (4.1–23.6) weeks
- Best overall response: Complete response [4, 8]: 0 Patients (%)
- Best overall response: Not evaluable (postbaseline scan not readable) [4, 8]: 3 (21) Patients (%)
- Best overall response: Partial response [4, 8]: 0 Patients (%)
- Best overall response: Progressive disease [4, 8]: 4 (29) Patients (%)
- Best overall response: Stable disease [4, 8]: 7 (50) Patients (%)
- Best overall response: Complete response [4, 9]: 0 Patients (%)
- Best overall response: Not evaluable (postbaseline scan not readable) [4, 9]: 3 (21) Patients (%)
- Best overall response: Partial response [4, 9]: 1 (7) Patients (%)
- Best overall response: Progressive disease [4, 9]: 5 (36) Patients (%)
- Best overall response: Stable disease [4, 9]: 5 (36) Patients (%)
- Objective responses ([4]; RECIST 1.1 (central read), TNBC): No objective responses; also recorded: No patients with TNBC had an objective response
- Died or had progressive disease ([4]; RECIST 1.1 (central read), TNBC (7 of 14)): 50.0%
- Stable disease as best overall tumor response ([4]; RECIST 1.1, TNBC (7 of 14)): 50.0%
